According to patent US9670242B2, “Tetracyclic anthraquinone derivatives” (Tianjin Hemay Bio-Tech Co., Ltd, priority 2012, dated 2017):
Counter-ions that a name gives are not always drawn.

Key:
A375 cells = test: A375 cell growth inhibition test (MTT assay); assay type: cell-based, human; details: 72 h
Experimental: A375 Cell Growth Inhibition Test (MTT Assay)
(§1) II. Reagents and Consumable Materials
Culture medium: 90% DMEM+10% FBS (fetal calf serum); Pancreatin (0.25% (w/v) solution was formulated with PBS, 0.53 mM of EDTA was added in the formulation); PBS; 96-well culture plate.
(§2) 1. A plate (10 cm) of cells in logarithmic growth phase that were normally cultured was collected;
(§3) 2. The culture solution was sucked out. The plate was washed with 5 mL of PBS once or twice;
(§4) 3. PBS was sucked out. 1.5 mL of 0.25% pancreatin was added to the plate to infiltrate the cells for 1 min;
(§5) 4. The culture plate was placed in an incubator. Digestion was carried out for about 5 min at 37° C.;
(§6) 5. 3 mL of complete culture solution was added to the culture plate to stop the digestion. The cells were carefully scoured with micropipette (1 ml) to give a uniform cell suspension. The suspension was implanted into a 96-well cell culture disc by 3000 cells/100 μL per well. The culture plate was incubated overnight under 5% CO2 at 37° C. In day 2, 100 μL of culture solution comprising a compound was added in each well. The plate was further incubated for 72 h under 5% CO2 at 37° C.;
(§7) 6. The culture solution was sucked out;
(§8) 7. 100 μL of serum-free culture solution containing 0.5 mg/mL MTT was added in each well. The plate was incubated for 3 h;
(§9) 8. The culture solution was carefully sucked out;
(§10) 9. 100 μL of DMSO was added in each well and vibrated to dissolve;
(§11) 10. OD values were determined at 490 nM.
(§12) IV. Results and Treatments
(§13) 1. Calculation of Relative Inhibition Ratio The inhibition ratio of a compound on cell growth=(PC−n)/(PC−NC)×100%
(§14) PC: OD values of cells after normal growth in control wells without a compound;
(§15) n: OD values of cells after growth in test wells with a compound;
(§16) NC: Background OD values of blank wells without a compound and cells.

SK-OV-3 cells = test: SK-OV-3 cell growth inhibition test (MTT assay); assay type: cell-based, human; details: growth inhibition at 667 nM, 69 h
Experimental: SK-OV-3 Cell Growth Inhibition Test (MTT Assay)
Cell strains: SK-OV-3 (human ovarian cancer cell strains); MTT; antitumor compounds; DMSO.
as §1
Culture medium: 90% McCoy's 5A+10% FBS; Pancreatin (0.25% (w/v) solution was formulated with PBS, 0.53 mM of EDTA was added in the formulation); PBS; 96-well culture plate.
as §2, §3
(§17) 3. PBS was sucked out. 1.5 mL of 0.25% pancreatin was added to infiltrate the cells;
4. The pancreatin was sucked out. The culture plate was placed in an incubator. Digestion was carried out for about 5 min at 37° C.;
as §6, with “5. 4.5” for “5. 3”, “by 4000” for “by 3000”, “for 69” for “for 72”
as §7, §8, §9, §10, §11, §12, §13, §14, §15, §16

BxPc-3 cells = test: BxPc-3 cell growth inhibition test (MTT assay); assay type: cell-based, human; details: growth inhibition at 2000 nM, 70 h
Experimental: BxPc-3 Cell Growth Inhibition Test (MTT Assay)
Cell strains: BxPC-3 (human pancreatic cancer cell strains); MTT; antitumor compounds; DMSO.
as §1
(§18) Culture medium: 90% RPMI-1640+10% FBS; Pancreatin (0.25% (w/v) solution was formulated with PBS, 0.53 mM of EDTA was added in the formulation); PBS; 96-well culture plate.
as §2, §3, §17
4. The culture plate was placed in an incubator. Digestion was carried out for about 8 min at 37° C.;
as §6, with “5. 4.5” for “5. 3”, “by 5000” for “by 3000”, “for 70” for “for 72”
as §7, §8, §9
(§19) 9. 100 μL of DMSO was added into each well and vibrated to dissolve;
as §11, §12, §13, §14, §15, §16

NCI-H446 cells = test: NCI-H446 cell growth inhibition test (MTT assay); assay type: cell-based, human; details: growth inhibition at 222 nM, 70 h
Experimental: NCI-H446 Cell Growth Inhibition Test (MTT Assay)
Cell strains: NCI-H446 (human small cell lung cancer cell strains); MTT; antitumor compounds; DMSO.
as §1, §18, §2, §3, §17
4. The culture plate was placed in an incubator. Digestion was carried out for about 3 min at 37° C.;
as §6, with “4000” for “3000”, “70” for “72”
as §7, §8, §9, §19, §11, §12, §13, §14, §15, §16

MDA-MB-453 cells = test: MDA-MB-453 cell growth inhibition test (SRB assay); assay type: cell-based, human; details: growth inhibition at 2000 nM, 69.5 h
Experimental: MDA-MB-453 Cell Growth Inhibition Test (SRB Assay)
Cell strains: MDA-MB-453 (human breast cancer cell strains); SRB: 0.4% (w/v) working solution was formulated with 1% glacial acetic acid, reserved at 4° C.; antitumor compounds; DMSO.
as §1
Culture medium: 90% L15+10% FBS; pancreatin (0.25% (w/v) solution was formulated with PBS, 0.53 mM of EDTA was added in the formulation); PBS; 96-well culture plate.
as §2, §3
(§20) 3. 1.5 mL of 0.25% pancreatin was added to the plate to infiltrate the cells;
(§21) 4. The pancreatin was sucked out. The culture plate was placed in an incubator. Digestion was carried out for about 3 min at 37° C.;
as §6, with “5. 4” for “5. 3”, “uniform single” for “uniform”, “culture plate” for “culture disc”, “by 7000” for “by 3000”, “well.” for “well. The plate was further incubated for 72 h under 5% CO2 at 37° C.;”
The plate was further incubated for 69.5 h under 5% CO2 at 37° C.;
(§22) 6. The culture solution was sucked out. 100 uL of TCA fixed cells which were diluted to 10% were added to each well. The plate was kept in a refrigerator for 1 h at 4° C.
(§23) 7. TCA stationary liquid was sucked out. Each well was washed with 150 μL of ddH2O five times;
(§24) 8. After the stationary liquid was cleansed, the plate was dried in the air at the room temperature;
(§25) 9. 60 μL of SRB staining solution was added in each well. The well was stained for 15 min at the room temperature;
(§26) 10. The SRB staining solution was sucked out. Each well was washed with 150 μL of 1% glacial acetic acid five times;
(§27) 11. After the SRB staining solution was cleansed, the plate was dried in the air at the room temperature;
(§28) 12. 100 μL of 10 mM Tris was added in each well. The plate was vibrated to dissolve out SRB;
(§29) 13. OD values were determined at 570 nM.
as §12, §13, §14, §15, §16

22Rv1 cells = test: 22Rv1 cell growth inhibition test (SRB assay); assay type: cell-based, human; details: growth inhibition at 222 nM, 73 h
Experimental: 22Rv1 Cell Growth Inhibition Test (SRB Assay)
Cell strains: 22Rv1 (human prostate cancer cell strains); SRB: 0.4% (w/v) working solution was formulated with 1% glacial acetic acid, reserved at 4° C.; antitumor compounds; DMSO.
as §1, §18, §2, §3, §20, §21
as §6, with “5. 4” for “5. 3”, “uniform single” for “uniform”, “culture plate” for “culture disc”, “by 7000” for “by 3000”, “for 73” for “for 72”
as §22, §23, §24, §25, §26, §27, §28, §29, §12, §13, §14, §15, §16

[1] = Solubility of the compound in water; assay type: physicochemical
A431 cells = test: A431 cell growth inhibition test (MTT assay); assay type: cell-based, human; details: 72 h
Experimental: A431 Cell Growth Inhibition Test (MTT Assay)
as §1
Culture medium: 45% DMEM+45% F12+10% FBS (fetal calf serum); Pancreatin (0.25% (w/v) solution was formulated with PBS, 0.53 mM of EDTA was added in the formulation); PBS; 96-well culture plate.
as §2, §3, §4, §5
as §6, with “mL)” for “ml)”, “2500” for “3000”
as §7, §8, §9, §10, §11, §12, §13, §14, §15, §16

Compound: COc1cccc2c1C(=O)c1c(O)c3c(c(O)c1C2=O)CC(O)(C(=O)COC(=O)CCC(=O)NCCN1CCOCC1)CC3O[C@H]1C[C@H](n2cccc2)[C@H](O)[C@H](C)O1 (stereo partly drawn) [Example 99, 10-((3′-(pyrrol-1-yl)-2′,3′,6′-trideoxy-alphal-l-lyxo-hexylpyranyl)oxy)-7,8,9,10-tetrahydro-6,8,11-trihydroxy-13-oxo-14-(4-((2-(morpholin-1-yl)ethyl)amino)-4-oxo-butyrato)-1-methoxy-5,12-naphthalenedione hydrochloride]
- IC50 (A375 cells; hydrochloride): 35 nM

Compound: CC(=O)O.COc1cccc2c1C(=O)c1c(O)c3c(c(O)c1C2=O)CC(O)(C(=O)COC(=O)CCC(=O)NCCOCCN(C)C)CC3O[C@H]1C[C@H](n2cccc2)[C@H](O)[C@H](C)O1 (stereo partly drawn) [Example 76, 10-((3′-(pyrrol-1-yl)-2′,3′,6′-trideoxy-alphal-l-lyxo-hexylpyranyl)oxy)-7,8,9,10-tetrahydro-6,8,11-trihydroxy-13-oxo-14-(4-(2-(2-(dimethylamino)ethoxy)ethylamino)-4-oxo-butyrato)-1-methoxy-5,12-naphthalenedione acetate]
- Inhibition Ratio (%) (SK-OV-3 cells): 46.4%
- Inhibition Ratio (%) (BxPc-3 cells): 77.1%
- Inhibition Ratio (%) (NCI-H446 cells): 46%
- Inhibition Ratio (%) (MDA-MB-453 cells): 62.7%
- Inhibition Ratio (%) (22Rv1 cells): 49.2%
- solubility of the compound in water [1]: more than 9 mg/ml

Compound: COc1cccc2c1C(=O)c1c(O)c3c(c(O)c1C2=O)CC(O)(C(=O)COC(=O)CCC(=O)NCCOCCN(C)C)CC3OC1CC(n2cccc2)C(O)C(C)O1 (stereo not shown) [Example 6]
- IC50 (A375 cells): 67 nM

Compound: COc1cccc2c1C(=O)c1c(O)c3c(c(O)c1C2=O)CC(O)(C(=O)COC(=O)CCCC(=O)NCCN1CCOCC1)CC3OC1CC(n2cccc2)C(O)C(C)O1 (stereo not shown) [Example 97]
- IC50 (A375 cells): 28 nM
- IC50 (A431 cells): 45 nM

Compound: CC(=O)O.CCN1CCN(C(=O)CCC(=O)OCC(=O)C2(O)Cc3c(O)c4c(c(O)c3C(O[C@H]3C[C@H](n5cccc5)[C@H](O)[C@H](C)O3)C2)C(=O)c2c(OC)cccc2C4=O)CC1 (stereo partly drawn) [Example 80, 10-((3′-(pyrrol-1-yl)-2′,3′,6′-trideoxy-alphal-l-lyxo-hexylpyranyl)oxy)-7,8,9,10-tetrahydro-6,8,11-trihydroxy-13-oxo-14-(4-(4-ethylpiperazin-1-yl)-4-oxo-butyrato)-1-methoxy-5,12-naphthalenedione acetate]
- solubility of the compound in water [1]: more than 11 mg/ml

Compound: CC(=O)O.COc1cccc2c1C(=O)c1c(O)c3c(c(O)c1C2=O)CC(O)(C(=O)COC(=O)CCC(=O)NCCc1ccncc1)CC3O[C@H]1C[C@H](n2cccc2)[C@H](O)[C@H](C)O1 (stereo partly shown) [Example 86]
- solubility of the compound in water [1]: more than 3 mg/ml

Compound: CC(=O)O.COc1cccc2c1C(=O)c1c(O)c3c(c(O)c1C2=O)CC(O)(C(=O)COC(=O)CCC(=O)NCCc1cccnc1)CC3O[C@H]1C[C@H](n2cccc2)[C@H](O)[C@H](C)O1 (stereo partly shown) [Example 85]
- solubility of the compound in water [1]: more than 11 mg/ml

Compound: CC(=O)O.COc1cccc2c1C(=O)c1c(O)c3c(c(O)c1C2=O)CC(O)(C(=O)COC(=O)CCC(=O)N1CCN(CCO)CC1)CC3O[C@H]1C[C@H](n2cccc2)[C@H](O)[C@H](C)O1 (stereo partly drawn) [Example 77, 10-((3′-(pyrrol-1-yl)-2′,3′,6′-trideoxy-alphal-l-lyxo-hexylpyranyl)oxy)-7,8,9,10-tetrahydro-6,8,11-trihydroxy-13-oxo-14-(4-((4-(2-hydroxy)ethyl)piperazin-1-yl)-4-oxo-butyrato)-1-methoxy-5,12-naphthalenedione acetate]
- Inhibition Ratio (%) (SK-OV-3 cells): 60.4%
- Inhibition Ratio (%) (BxPc-3 cells): 83.3%
- Inhibition Ratio (%) (NCI-H446 cells): 59.1%
- Inhibition Ratio (%) (MDA-MB-453 cells): 79.7%
- Inhibition Ratio (%) (22Rv1 cells): 57.9%
- solubility of the compound in water [1]: more than 10.6 mg/ml
